Measured values published in ChEMBL document CHEMBL3813680, “Discovery of a 2-hydroxyacetophenone derivative as an outstanding linker to enhance potency and β-selectivity of liver X receptor agonist” (Bioorg Med Chem, 2016).
Activity calls are given as the source filed them. The calls are words filed in the database; no cut-off is given here.

What was measured:
CHO-K1 = assay: Selectivity ratio of EC50 for GAL4 fused LXRalpha (unknown origin) transfected in CHOK1 cells to EC50 for GAL4 fused LXRbeta-LBD (unknown origin) transfected in CHOK1 cells; format: cell-based; details: Homo sapiens
[1] = molecular target: T1, Oxysterols receptor LXR-alpha (Homo sapiens) (UniProt Q13133); assay: Agonist activity at GAL4 fused LXRalpha (unknown origin) transfected in CHOK1 cells at 10 uM after 24 hrs by luciferase reporter gene assay; format: cell-based; details: CHO-K1
T1 sequence (whole entry): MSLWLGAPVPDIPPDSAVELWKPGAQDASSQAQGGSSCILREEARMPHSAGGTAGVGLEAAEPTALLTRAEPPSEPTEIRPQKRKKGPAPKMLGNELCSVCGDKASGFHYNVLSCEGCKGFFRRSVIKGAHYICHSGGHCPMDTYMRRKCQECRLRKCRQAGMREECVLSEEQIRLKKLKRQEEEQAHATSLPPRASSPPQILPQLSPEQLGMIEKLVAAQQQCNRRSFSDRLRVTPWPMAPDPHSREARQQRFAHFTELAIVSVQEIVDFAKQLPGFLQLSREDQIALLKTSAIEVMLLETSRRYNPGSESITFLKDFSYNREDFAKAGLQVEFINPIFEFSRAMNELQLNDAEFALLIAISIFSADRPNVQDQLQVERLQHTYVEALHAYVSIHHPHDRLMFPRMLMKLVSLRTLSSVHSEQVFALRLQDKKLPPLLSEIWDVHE

[2] = molecular target: T2, Oxysterols receptor LXR-beta (Homo sapiens, UniProt P55055); assay: Agonist activity at GAL4 fused LXRbeta-LBD (unknown origin) transfected in CHOK1 cells after 24 hrs by luciferase reporter gene assay
T2 sequence (P55055 whole entry): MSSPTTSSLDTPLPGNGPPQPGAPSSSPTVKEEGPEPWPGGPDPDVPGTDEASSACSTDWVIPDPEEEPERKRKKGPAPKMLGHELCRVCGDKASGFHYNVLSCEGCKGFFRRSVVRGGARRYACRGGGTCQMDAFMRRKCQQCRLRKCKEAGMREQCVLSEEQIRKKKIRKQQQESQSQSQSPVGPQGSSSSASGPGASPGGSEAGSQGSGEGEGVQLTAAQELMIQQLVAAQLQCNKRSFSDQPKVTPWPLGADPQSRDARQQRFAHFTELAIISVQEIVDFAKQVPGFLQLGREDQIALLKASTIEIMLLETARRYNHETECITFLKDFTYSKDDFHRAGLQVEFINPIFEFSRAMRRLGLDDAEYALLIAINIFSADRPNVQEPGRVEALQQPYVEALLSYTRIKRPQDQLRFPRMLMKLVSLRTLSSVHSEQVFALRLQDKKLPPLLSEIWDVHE

[3] = molecular target: T1, Oxysterols receptor LXR-alpha (Homo sapiens); assay: Agonist activity at GAL4 fused LXRalpha (unknown origin) transfected in CHOK1 cells at 10 uM after 24 hrs by luciferase reporter gene assay in presence of T0901317; format: cell-based; details: CHO-K1
[4] = molecular target: T3, Oxysterols receptor LXR-beta (Homo sapiens) (UniProt P55055); assay: Agonist activity at GAL4 fused LXRbeta-LBD (unknown origin) transfected in CHOK1 cells at 10 uM after 24 hrs by luciferase reporter gene assay in presence of T0901317; format: cell-based; details: CHO-K1
T3 sequence (whole entry): T2 sequence (P55055 whole entry)

[5] = molecular target: T4, Oxysterols receptor LXR-alpha (Homo sapiens, UniProt Q13133); assay: Agonist activity at GAL4 fused LXRalpha (unknown origin) transfected in CHOK1 cells after 24 hrs by luciferase reporter gene assay
T4 sequence (Q13133 whole entry): T1 sequence (whole entry)

[6] = Intrinsic clearance in hamster liver microsomes at 1 umol/L; format: ADME; details: cricetinae, read-out: CLH
[7] = Intrinsic clearance in mouse liver microsomes at 1 umol/L; format: ADME; details: read-out: CLH
[8] = Intrinsic clearance in human liver microsomes at 1 umol/L; format: ADME; details: read-out: CLH
Mus musculus [9] = assay: Antiatherosclerosis activity in LDL receptor knock out mouse model assessed as decrease in area of lipid accumulation at 10 mg/kg, po by HPLC analysis relative to control; format: functional; set-up: scale not given: the % may be the effect or the level left
Mus musculus [10] = assay: Antiatherosclerosis activity in LDL receptor knock out mouse model assessed as increase in TG levels at 10 mg/kg, po by HPLC analysis relative to control; format: functional
Mus musculus [11] = assay: Antiatherosclerosis activity in LDL receptor knock out mouse model assessed as […] in HDL-C levels at 10 mg/kg, po by HPLC analysis relative to control; format: functional; set-up: scale not given: the % may be the effect or the level left
Mus musculus [12] = assay: Antiatherosclerosis activity in LDL receptor knock out mouse model assessed as decrease in LDL-C levels at 10 mg/kg, po by HPLC analysis relative to control; format: functional; set-up: scale not given: the % may be the effect or the level left
Mus musculus [13] = assay: Antiatherosclerosis activity in LDL receptor knock out mouse model assessed as decrease in TC levels at 10 mg/kg, po by HPLC analysis relative to control; format: functional; set-up: scale not given: the % may be the effect or the level left
[14] = molecular target: T3, Oxysterols receptor LXR-beta (Homo sapiens); assay: Agonist activity at GAL4 fused LXRbeta-LBD (unknown origin) transfected in CHOK1 cells at 10 uM after 24 hrs by luciferase reporter gene assay; format: cell-based; details: CHO-K1
[15] = Cmax in mouse plasma at 100 mg/kg, po measured up to 24 hrs by HPLC-LC-MS/MS analysis; format: ADME, organism-based; set-up: dose 100 mg/kg, route oral
[16] = AUC in mouse plasma at 100 mg/kg, po measured up to 24 hrs by HPLC-LC-MS/MS analysis; format: ADME, organism-based; set-up: dose 100 mg/kg, time < 24 hr, route oral

Row | SMILES | Ratio EC50 (CHO-K1) | Activity [1] | EC50 [2] [nM] | Emax [3] [%] | Emax [4] [%] | EC50 [5] [nM] | further results
1 | CCCc1cc(C(O)(C(F)(F)F)C(F)(F)F)ccc1Oc1ccc(CCN2C(=O)NC(C)(c3ccc(OC(C)C)cc3)C2=O)c(O)c1 (stereo not drawn) | 3.48 | inactive | 2870 | 1 | 284 |  | 
2 | CCCc1cc(C(O)(C(F)(F)F)C(F)(F)F)ccc1Oc1ccc(C(=O)CN2C(=O)NC(C)(c3ccc(OC(C)C)cn3)C2=O)c(O)c1 (single isomer, unassigned; (+)) [listing 1 of 2 here] |  | inactive |  | 25 | 269 |  | 
3 | CCCc1cc(C(O)(C(F)(F)F)C(F)(F)F)ccc1Oc1ccc(C(=O)CN2C(=O)NC(C)(c3ccc(OC(C)C)cc3)C2=O)c(OC)c1 (stereo not drawn) | 10.4 |  | 360 | 38 | 306 | 3740 | 
4 | CCCc1cc(C(O)(C(F)(F)F)C(F)(F)F)ccc1Oc1ccc(C(=O)CN2C(=O)NC(C)(c3ccc(OC(C)C)cc3)C2=O)c(O)c1 (stereo not drawn) | 3.09 |  | 110 | 55 | 348 | 340 | microsomal CLint at 1 µM [6]: 27 µL/min/mg; microsomal CLint at 1 µM [7]: 76 µL/min/mg; microsomal CLint at 1 µM [8]: 12 µL/min/mg
5 | CCCc1cc(C(O)(C(F)(F)F)C(F)(F)F)ccc1Oc1ccc(C(O)CN2C(=O)NC(C)(c3ccc(OC(C)C)cc3)C2=O)cc1 (stereo not drawn) | 4.29 | inactive | 2330 | 5 | 176 |  | 
6 | CCCc1cc(C(O)(C(F)(F)F)C(F)(F)F)ccc1Oc1ccc(CN2C(=O)NC(C)(c3ccc(OC(C)C)cc3)C2=O)cc1 (stereo not drawn) | > 5.52 | inactive | 1810 | 0 | 22 |  | 
7 | CCCc1cc(C(O)(C(F)(F)F)C(F)(F)F)ccc1Oc1cccc(CCN2C(=O)NC(C)(c3ccc(OC(C)C)cc3)C2=O)c1 (stereo not drawn) | 1.01 |  | 2850 | 23 | 126 | 2890 | 
8 | CCCc1cc(C(O)(C(F)(F)F)C(F)(F)F)ccc1Oc1ccc(CCN2C(=O)NC(C)(c3ccc(OC(C)C)cc3)C2=O)cc1 (stereo not drawn) | > 5.32 | inactive | 1880 | 1 | 223 |  | 
9 | CCCc1cc(C(O)(C(F)(F)F)C(F)(F)F)ccc1Oc1ccc(C(=O)CN2C(=O)NC(C)(c3ccc(OC(C)C)cn3)C2=O)c(O)c1 (single isomer, unassigned; (-)) |  |  |  | 164 | 255 |  | 
10 | CCCc1cc(C(O)(C(F)(F)F)C(F)(F)F)ccc1Oc1cccc(CN2C(=O)NC(C)(c3ccc(OC(C)C)cc3)C2=O)c1 (stereo not drawn) | 3.92 |  | 500 | 53 | 429 | 1960 | 
11 | CCCc1cc(C(O)(C(F)(F)F)C(F)(F)F)cc(CCC)c1OC/C=C/CN1C(=O)NC(C)(c2ccc(OC(C)C)cc2)C1=O (stereo not drawn) | 1.54 |  | 800 | 40 | 182 | 1230 | 
12 | CCCc1cc(C(O)(C(F)(F)F)C(F)(F)F)ccc1Oc1ccc(C(=O)CN2C(=O)NC(C)(c3ccc(OC(C)C)cn3)C2=O)c(O)c1 (single isomer, unassigned; (+)) [listing 2 of 2 here] |  |  | 2900 |  |  |  | 
13 | CCCc1cc(C(O)(C(F)(F)F)C(F)(F)F)ccc1Oc1ccc(C(=O)CN2C(=O)NC(C)(c3ccc(OC(C)C)cc3)C2=O)c(C)c1 (stereo not drawn) | 6.25 |  | 64 | 71 | 264 | 400 | 
14 | O=S(=O)(c1ccccc1)N(CC(F)(F)F)c1ccc(C(O)(C(F)(F)F)C(F)(F)F)cc1 [T091317] |  |  |  |  |  |  | Activity (Mus musculus [9]): 40%; Activity (Mus musculus [10]): 465%; Activity (Mus musculus [11]): 47%; Activity (Mus musculus [12]): 55%; Activity (Mus musculus [13]): 96%
15 | CCCc1cc(C(O)(C(F)(F)F)C(F)(F)F)ccc1Oc1ccc(C(=O)CN2C(=O)NC(C)(c3ccc(OC(C)C)cc3)C2=O)cc1 (stereo not drawn) | 3 |  | 120 | 46 | 236 | 360 | 
16 | CCCc1cc(C(O)(C(F)(F)F)C(F)(F)F)cc(CCC)c1OC/C=C\CN1C(=O)NC(C)(c2ccc(OC(C)C)cc2)C1=O (stereo not drawn) |  | inactive |  | 0 | 1 |  | Activity [14]: inactive
17 | CCCc1cc(C(O)(C(F)(F)F)C(F)(F)F)ccc1Oc1ccc(CCN2C(=O)NC(C)(c3ccc(OC(C)C)cc3)C2=O)c(OC)c1 (stereo not drawn) | 6.02 | inactive | 1660 | 0 | 534 |  | 
18 | CCCc1cc(C(O)(C(F)(F)F)C(F)(F)F)ccc1Oc1ccc(CCN2C(=O)NC(C)(c3ccc(OC(C)C)cc3)C2=O)c(C)c1 (stereo not drawn) | 4.89 |  | 700 | 53 | 615 | 3140 | 
19 | CCCc1cc(C(O)(C(F)(F)F)C(F)(F)F)ccc1Oc1ccc(C(=O)CN2C(=O)NC(C)(c3ccc(OC(C)C)cn3)C2=O)c(O)c1 (racemic) [listing 1 of 2 here] | 5.69 |  |  | 68 | 329 |  | 
20 | CCCc1cc(C(O)(C(F)(F)F)C(F)(F)F)cc(CCC)c1OCC#CCN1C(=O)NC(C)(c2ccc(OC(C)C)cc2)C1=O (stereo not drawn) | 1.41 |  | 610 | 27 | 149 | 860 | 
21 | CCCc1cc(C(O)(C(F)(F)F)C(F)(F)F)cc(CCC)c1OCCCCN1C(=O)NC(C)(c2ccc(OC(C)C)cc2)C1=O (racemic) |  |  |  |  |  |  | Cmax [15]: 406 ng/mL; AUC at 24 h [16]: 3420 ng·h/mL
22 | CCCc1cc(C(O)(C(F)(F)F)C(F)(F)F)ccc1Oc1ccc(C(=O)CN2C(=O)NC(C)(c3ccc(OC(C)C)cn3)C2=O)c(O)c1 (racemic) [listing 2 of 2 here] |  |  | 58 |  |  | 330 | microsomal CLint at 1 µM [6]: 11 µL/min/mg; microsomal CLint at 1 µM [7]: 24 µL/min/mg; microsomal CLint at 1 µM [8]: 7 µL/min/mg
